Results on four molecules are retold here after paper PMC10002220, “In Vivo Reversal of P-Glycoprotein-Mediated Drug Resistance in a Breast Cancer Xenograft and in Leukemia Models Using a Novel, Potent, and Nontoxic Epicatechin EC31” (International Journal of Molecular Sciences, 2023).

The structures appear in SMILES notation. Read-outs that look alike come from different tables or passages of the source.

The subject of data set [1] is P-gp. Nature of the data set: EC50 for reversing drug resistance in P388ADR cells (cell proliferation assay).
Description: (§2) EC50 was defined as the concentration at which the modulator can reduce the IC50 of an anticancer drug by half in the P-gp-overexpressing cell lines. […] The P-gp-modulating activity of methylated catechin derivatives was further studied by measuring the EC50. […] Three P-gp-overexpressing cell lines were employed, including breast cancer cell line LCC6MDR, mouse leukemia cell line P388ADR, and human leukemia cell line K562/P-gp. The anticancer drugs tested included DOX, PTX, and VCR. All values were presented as mean ± standard error of mean. N = 3–6 independent experiments.
(§3) About 6500 cells of LCC6MDR or 10,000 cells of P388ADR or K562/P-gp were seeded to each well of 96-well plate and were then incubated at 37 °C overnight. […] Cell viability was determined using CellTiter 96 AQueous Assay (Promega, Madison, WI, USA, #G1111) as reported previously [38]. The % of cell survival, IC50 of anticancer drugs towards the cell line, and EC50 of modulators were analyzed using nonlinear regression in Prism 5.0.
Data set [2] concerns P-gp. Nature of the data set: DOX efflux in P388ADR cells. In kind it is cell-based, mouse. As to conditions: 1 µM modulator; after 180 min of efflux; P388ADR preloaded with 20 µM DOX. The method, then: Figure 2 Effect of methylated catechin derivatives on intracellular DOX accumulation and DOX efflux in the P-gp-overexpressing cancer cells. […] Then, the cells were washed, and the intracellular DOX level was measured using flow cytometer. (A) LCC6MDR, (B) P388ADR, and (C) K562/P-gp. […] (D) In the efflux study, P388ADR cells were firstly incubated with 20 µM DOX for 45 min. […] At 60, 120, and 180 min, the cells were harvested, and the intracellular DOX level was measured. At 180 min, ** represents p < 0.01, and *** represents p < 0.001, both being relative to P388ADR incubated with DMSO only. […] N = 3 independent experiments. DMSO was used as a solvent control, and the highest amount used was 0.5%.
We investigated if methylated catechin derivatives could inhibit P-gp-mediated drug efflux in P-gp-overexpressing cells. […] Without a modulator, intracellularly, the DOX level was maintained at 80% and 11% after 180 min for P388 and P388ADR cells, respectively (Figure 2D). […] After 180 min of efflux, the intracellular DOX level could be maintained at 61% (p < 0.001), 59% (p < 0.01), 44 % (p < 0.001), and 37%, respectively (Figure 2D).

Data set [3] concerns the target T1, P-gp (Homo sapiens, UniProt P08183). Nature of the data set: EC50 for reversing drug resistance in LCC6MDR cells (cell proliferation assay). As to conditions: EC50 for Reversing MDR, LCC6MDR.
Description: as §2, §3
A further data set relates to fibroblast cells. Further details: method as in PMID 25985195, PMID 34597896. The note with it: cited from earlier work.
For data set [4], the target named is T1, P-gp. Further details: expressed in transfected cells; host or cells: MDA435/LCC6MDR (human breast cancer line, gift of Dr. Robert Clarke). The note with it: Cpds at 1 μM; IC50 of PTX without/with modulator; cited from earlier work.
The target in data set [5] is T1, P-gp. Nature of the data set: EC50 for reversing drug resistance in K562/P-gp cells (cell proliferation assay). The note with it: EC50 for Reversing MDR.
Description: as §2, §3
The test system of another data set is MRP1. As to conditions: Cpds at 1 μM; IC50 of DOX without/with modulator; cited from earlier work.
Data set [6] concerns P-gp. The arrangement: method as in PMID 25985195, PMID 34597896. The note with it: cited from earlier work.
Data set [7] has as its target T1, P-gp. Nature of the data set: Vanadate-sensitive P-gp ATPase activity assay (P-gp-Glo). The note with it: 70 µM.
Protocol: (A) Effect of EC31 on vanadate-sensitive P-gp ATPase was studied. EC31, C25, and EGCG at different concentrations (10, 50, and 70 µM) were incubated with recombinant human P-gp microsomes and MgATP with or without sodium vanadate. After stopping the reaction, the remaining ATP level was determined by measuring the luciferase-generated luminescent signal. Vanadate-inhibitable P-gp ATPase activity was determined by calculating the luminescence signal in the samples with or without sodium vanadate. […] P-gp ATPase activity caused by compounds was normalized to basal P-gp ATPase activity (human P-gp microsome treated with DMSO) and was presented as fold change. A dashed line at 1.0-fold change represented the basal P-gp ATPase activity. […] The values in this figure were presented as mean ± standard error of mean. N = 3 independent experiments.
P-gp ATPase activity was measured with P-gp-Glo assay system (Promega, #V3601) with human P-gp membrane vesicles as reported previously [32]. […] The reaction was initiated by adding MgATP and was then incubated at 37 °C for 1 h. […] The remaining ATP signal of luminescence was measured with a Clariostar microplate reader (BMG Labtech, Ortenberg, Germany). Vanadate-inhibitable P-gp ATPase activity was determined by calculating the luminescence signal in the samples with or without sodium vanadate.
Data set [8] can be described thus: Pharmacokinetics of methylated catechin derivatives in plasma. The class given is in vivo, BALB/c mice. As to conditions: BALB/c, mouse; for AUC(0-inf): read-out: AUC0-infinity (converted). How it is done:
Figure 4 Pharmacokinetics of methylated catechin derivatives and their effects on the PK of PTX. BALB/c mice were i.v. injected with 10 mg/kg or i.p. injected with 30 mg/kg of modulators. At 10, 30, 60, 180, 420, 840, and 1080 min postadministration, animals were sacrificed to collect their blood, and then the plasma concentration of modulator was determined using UPLC-MS/MS. The % of bioavailability of each modulator injected through i.p. injection route was calculated by comparing it to its plasma level when injected via i.v. injection. […] (E) Pharmacokinetic (PK) profiles of 4 potent methylated catechin derivatives were summarized. (F) The effect of modulators (GC51, EC31, or C25) on the PK of PTX was firstly determined through i.p. injection of modulator at 30 mg/kg 1 h prior to i.v. injection of 12 mg/kg PTX. At 10, 30, 60, 120, 240, and 420 min postadministration of PTX, animals were sacrificed. Plasma level of PTX was quantified through LC/MSMS. The dashed line indicates the corresponding EC50 of modulator in vitro for reversing PTX resistance. […] There were 3 mice at each time point. All pharmacokinetic parameters were calculated with the pharmacokinetic software Summit® PK solution. Two-tailed test was conducted for the AUC value of PTX alone and cotreatment. […] N.S. = not significant. / = not applicable.
In group 1, BALB/c mice were injected intravenously (i.v.) with 10 mg/kg of modulator, and their blood was collected at 10, 30, 60, 120, 240, and 480 min postadministration. In group 2, BALB/c mice were injected intraperitoneally (i.p.) with 30 mg/kg of modulator, and their blood was collected at 10, 30, 60, 180, 420, 840, and 1080 min postadministration.
The pharmacokinetics of PTX was studied with or without the coadministered modulator. PTX (12 mg/kg i.v.) alone was injected into the BALB/c mice. For the combination study, modulator (30 mg/kg i.p.) was injected 1 h before injecting PTX (12 mg/kg i.v.). The blood was collected at 10, 30, 60, 120, 240, and 420 min after PTX administration. Blood samples were spun at 14,000 rpm for 10 min at 4 °C to collect plasma supernatant. Plasma concentration of methylated catechin derivatives or PTX was determined through UPLC-QQQ-MS as described in Section 4.9. Pharmacokinetic parameters were analyzed with PK Solutions 2.0 (Summit Research Service, Ashland, OH, USA).

The subject of a further data set is K562 cells. Nature of the data set: Drug resistance level: IC50 of anticancer drugs in K562. In kind it is cell-based. The note with it: Homo sapiens, K562, 72 h; 3 days incubation. How it is done: (§1) In the Western blot membrane, the total P-gp and β-actin expression in each lane was quantified with ImageJ software. The relative P-gp expression was an intensity ratio of P-gp band relative to the β-actin band. The relative P-gp expression of the resistant cell line relative to its respective wild type was presented as a bar chart. The plasma membrane P-gp levels of LCC6MDR and K562/P-gp relative to their wild types were determined through flow cytometry using antihuman P-gp-PE antibodies. (B) LCC6MDR and LCC6. (C) K562/P-gp and K562. (D) the drug resistance levels of three P-gp-overexpressing cell lines and their wild types were studied. The 3 pairs of cell lines were incubated with anticancer drugs paclitaxel (PTX), doxorubicin (DOX), and vincristine (VCR) for 3 days, and the % of cell survival was then determined. Their IC50 (nM) values were calculated using Prism 5.0. RF (relative fold) was a ratio of IC50 of anticancer drugs in a P-gp-overexpressing cell line relative to its respective wild type. N = 3 independent experiments. […] All cell lines were counterstained with DAPI. (E) LCC6 and LCC6MDR, (F) P388 and P338ADR, and (G) K562 and K562/P-gp. Bar = 8 µm. / = not determined.

The subject of a further data set is K562/P-gp cells. Nature of the data set: Drug resistance level: IC50 of anticancer drugs in K562/P-gp. In kind it is cell-based, human. The method, then: as §1
[9] abbreviates: read-out: EC50 for Reversing MDR, DOX Resistance, P388ADR, concentration that reduces IC50 of DOX by half.
The mark [10] stands for this setting: read-out: EC50 for Reversing MDR, PTX Resistance, P388ADR, concentration that reduces IC50 of PTX by half.
[11] abbreviates: DOX Resistance, concentration that reduces IC50 of DOX by half.
[12] abbreviates: PTX Resistance, concentration that reduces IC50 of PTX by half.
The mark [13] stands for this setting: DOX Resistance, K562/P-gp, concentration that reduces IC50 of DOX by half.
[14] abbreviates: VCR Resistance, K562, concentration that reduces IC50 of VCR by half, column head prints K562.

T1 sequence (P08183 whole entry): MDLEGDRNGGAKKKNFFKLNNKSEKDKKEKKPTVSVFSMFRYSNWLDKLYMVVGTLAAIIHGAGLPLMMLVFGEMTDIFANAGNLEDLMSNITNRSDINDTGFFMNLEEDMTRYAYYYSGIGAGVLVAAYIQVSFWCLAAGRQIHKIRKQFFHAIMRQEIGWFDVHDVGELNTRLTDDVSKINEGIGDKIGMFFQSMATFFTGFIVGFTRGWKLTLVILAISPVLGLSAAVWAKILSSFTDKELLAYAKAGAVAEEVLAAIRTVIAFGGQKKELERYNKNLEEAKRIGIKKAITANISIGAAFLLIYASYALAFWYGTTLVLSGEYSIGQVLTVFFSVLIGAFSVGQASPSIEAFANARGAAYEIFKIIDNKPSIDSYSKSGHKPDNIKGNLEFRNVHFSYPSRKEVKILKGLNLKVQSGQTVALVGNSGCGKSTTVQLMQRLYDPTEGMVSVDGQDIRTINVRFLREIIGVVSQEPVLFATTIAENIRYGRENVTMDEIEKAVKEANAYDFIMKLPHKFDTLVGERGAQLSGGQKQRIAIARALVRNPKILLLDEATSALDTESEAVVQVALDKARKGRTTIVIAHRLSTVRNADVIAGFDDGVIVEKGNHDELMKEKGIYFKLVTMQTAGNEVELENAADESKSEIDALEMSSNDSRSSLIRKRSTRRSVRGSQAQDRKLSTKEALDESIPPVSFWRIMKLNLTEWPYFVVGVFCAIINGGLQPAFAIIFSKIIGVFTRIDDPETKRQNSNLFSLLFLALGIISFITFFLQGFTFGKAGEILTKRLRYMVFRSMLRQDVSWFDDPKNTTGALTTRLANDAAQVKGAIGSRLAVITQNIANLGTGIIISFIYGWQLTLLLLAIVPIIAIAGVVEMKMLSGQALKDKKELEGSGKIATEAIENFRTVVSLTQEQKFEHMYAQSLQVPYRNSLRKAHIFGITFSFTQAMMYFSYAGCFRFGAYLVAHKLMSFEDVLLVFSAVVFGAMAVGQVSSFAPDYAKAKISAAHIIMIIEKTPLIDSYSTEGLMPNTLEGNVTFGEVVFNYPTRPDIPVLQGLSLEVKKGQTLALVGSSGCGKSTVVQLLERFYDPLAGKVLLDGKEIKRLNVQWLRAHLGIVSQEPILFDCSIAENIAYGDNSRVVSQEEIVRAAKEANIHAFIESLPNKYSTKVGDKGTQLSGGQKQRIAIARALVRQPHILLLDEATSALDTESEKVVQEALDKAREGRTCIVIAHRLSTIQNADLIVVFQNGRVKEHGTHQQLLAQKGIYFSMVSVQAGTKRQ

For the molecule `COc1cc(OC)c2c(c1)O[C@H](c1ccc(OC)c(OC)c1)[C@@H](OC(=O)c1ccc(F)c(NC(=O)c3cc(OC)c(OC)c(OC)c3)c1)C2` [C25], the EC50 in the data set on P-gp [1] (setting [9]) was 260 ± 60 nM; with P-gp [1] (setting [10]) it was 216 ± 10 nM; on P-gp [3] (setting [11]), 180 ± 18 nM; on P-gp [3] (setting [12]), 91 ± 5 nM; on P-gp [5] (setting [13]) it was 93 ± 21 nM; on P-gp [5] (setting [14]), 60 ± 12 nM. The “Relative intracellular DOX level (%)” value with P-gp [2] came to 37%. Further, the IC50 with fibroblast cells is over 100000 nM. For the same molecule, the “LCC6MDR P-gp-modulating activity RF (relative fold)” value on P-gp [4] is 84.7. Further, in the data set with MRP1, the “2008MRP1 MRP1-modulating activity RF (relative fold)” value is reported as 1.2. Also, in the data set on P-gp [6], the “effect on plasma membrane level of P-gp” value is recorded as “did not affect”. Moreover, the “P-gp ATPase activity, fold change relative to basal” value at P-gp [7] was at most 1.6 fold. Moreover, the AUC(0-t) was 21200 ng·h/mL in [8] (ip, 30 mg/kg) and 8870 ng·h/mL in data set [8] (iv, 10 mg/kg). The Cmax in data set [8] (ip, 30 mg/kg) was 5260 ng/mL. In addition, the Tmax in data set [8] (ip, 30 mg/kg) was 1 h. For the same molecule, the half-life in data set [8] (ip, 30 mg/kg) came to 3.12 h; in [8] (iv, 10 mg/kg), 0.85 h. Also, the AUC(0-inf) in data set [8] (ip, 30 mg/kg) is 21600 ng·h/mL; in data set [8] (iv, 10 mg/kg), 8890 ng·h/mL.
In the case of `COc1cc(OC)c2c(c1)OC(c1cc(OC)c(OC)c(OC)c1)C(OC(=O)C=Cc1cc(OC)c(OC)c(OC)c1)C2` (centres unmarked) [EGC23], in the data set with P-gp [1] (setting [9]), the EC50 was determined as […]. In the data set with P-gp [1] (setting [10]), the EC50 worked out at […]. In data set [8] (ip, 30 mg/kg), the AUC(0-t) was […], the Cmax stood at 2210 ng/mL, the Tmax is 1 h and the half-life was 2.45 h. The AUC(0-inf) in [8] (ip, 30 mg/kg) was 7090 ng·h/mL. Besides, in data set [8] (iv, 10 mg/kg), the AUC(0-t) is 3190 ng·h/mL, the half-life stood at 0.538 h and the AUC(0-inf) is 3210 ng·h/mL.
For `COc1cc(OC)c2c(c1)O[C@H](c1cc(OC)c(OC)c(OC)c1)[C@@H](OC(=O)c1ccc(F)c(NC(=O)c3cc(OC)c(OC)c(OC)c3)c1)C2` [GC51], the EC50 came out at 335 ± 15 nM in the data set with P-gp [1] (setting [9]); 496 ± 12 nM in the data set on P-gp [1] (setting [10]); 233 ± 36 nM on P-gp [3] (setting [11]); 82 ± 14 nM on P-gp [3] (setting [12]); 129 ± 36 nM at P-gp [5] (setting [13]); 77 ± 7 nM on P-gp [5] (setting [14]). Also, the “Relative intracellular DOX level (%)” value in the data set on P-gp [2] was found to be 59%. The “LCC6MDR P-gp-modulating activity RF (relative fold)” value at P-gp [4] is listed as 52.6. In the data set on MRP1, the “2008MRP1 MRP1-modulating activity RF (relative fold)” value is 3.0. Further, the AUC(0-t) is 24500 ng·h/mL in [8] (ip, 30 mg/kg) and 13000 ng·h/mL in [8] (iv, 10 mg/kg). In [8] (ip, 30 mg/kg), the Cmax was 6120 ng/mL. Besides, in data set [8] (ip, 30 mg/kg), the Tmax is 1 h. The half-life in data set [8] (ip, 30 mg/kg) is 3.83 h; in [8] (iv, 10 mg/kg), 1.52 h. Further, the AUC(0-inf) in data set [8] (ip, 30 mg/kg) was 25700 ng·h/mL; in data set [8] (iv, 10 mg/kg) it was 13600 ng·h/mL.
Take `CC[C@]1(O)C[C@H]2CN(CCc3c([nH]c4ccccc34)[C@@](C(=O)OC)(c3cc4c(cc3OC)N(C=O)[C@H]3[C@@](O)(C(=O)OC)[C@H](OC(C)=O)[C@]5(CC)C=CCN6CC[C@]43[C@@H]65)C2)C1` [VCR, vincristine]: the IC50 is 0.5 ± 0.1 nM with K562 cells and 84.1 ± 6.4 nM with K562/P-gp cells (Homo sapiens, K562, 72 h, 3 days incubation). In the data set with K562/P-gp cells (IC50 in K562/P-gp relative to K562), the “RF (relative fold)” value is listed as 168.2.

As usually defined, the IC50 is the concentration at which inhibition is half-maximal. For orientation: AUC(0-t) means the area under the concentration-time curve up to a stated or last time point. The term Cmax denotes the highest concentration seen after dosing. For orientation: Tmax means the time at which the peak concentration occurs. As usually defined, the half-life is the time needed for the level to fall by half in the phase considered.
